In article PMC9940446 (Bioorganic & medicinal chemistry letters, 2022):

Key:
MDM2 = conditions: read-out: binding affinity towards MDM2 (Kd); ref 22 (Thean et al.); cited from earlier work
[1] = Tumor uptake and tissue distribution in mice bearing SJSA-1 xenografts; type: in vivo, athymic mice; conditions: athymic, mouse, iv, 166.5 kBq, total radioactivity
[2] = In vivo metabolic stability; conditions: athymic mice without tumors, i.v., plasma 4 h post-injection; RP-HPLC; n = 2/time point
[3] = Lipophilicity, shake-flask n-octanol/PBS; type: physicochemical; conditions: n-octanol/phosphate-buffered saline, pH 7.4
[4] = test system: SJSA-1 osteosarcoma cell line (MDM2-amplified, wild-type p53); type: cell-based, human; conditions: SJSA-1 cells, 50 μM VIP116, 2 h incubation
[5] = test system: SJSA-1 human osteosarcoma xenografts; assay: Tumor uptake and tissue distribution in mice bearing SJSA-1 xenografts; type: in vivo, athymic mice

Which Kd (MDM2) does the source give for CC(=O)N[C@@H](CCCCN)C(=O)NCCCCCC(=O)N[C@H](C(=O)N[C@@H](CO)C(=O)N[C@@H](Cc1ccccc1)C(=O)N[C@]1(C)CCCCCCC=CCCC[C@@](C)(C(=O)N[C@@H](CCC(=O)O)C(=O)N[C@@H](CC(N)=O)C(=O)N[C@@H](Cc2ccccc2)C(N)=O)NC(=O)[C@H](CC(C)C)NC(=O)[C@H](CC(C)C)NC(=O)[C@H](C)NC(=O)[C@H](Cc2c[nH]c3ccccc23)NC(=O)[C@H](Cc2ccc(O)cc2)NC(=O)[C@H](CCC(=O)O)NC1=O)[C@@H](C)O [VIP116] here?
Its Kd is 15.1 ± 1.7 nM.

For CC(=O)N[C@@H](CCCCNC(=O)c1cccc(I)c1)C(=O)NCCCCCC(=O)N[C@H](C(=O)N[C@@H](CO)C(=O)N[C@@H](Cc1ccccc1)C(=O)N[C@]1(C)CCCCCCC=CCCC[C@@](C)(C(=O)N[C@@H](CCC(=O)O)C(=O)N[C@@H](CC(N)=O)C(=O)N[C@@H](Cc2ccccc2)C(N)=O)NC(=O)[C@H](CC(C)C)NC(=O)[C@H](CC(C)C)NC(=O)[C@H](C)NC(=O)[C@H](Cc2c[nH]c3ccccc23)NC(=O)[C@H](Cc2ccc(O)cc2)NC(=O)[C@H](CCC(=O)O)NC1=O)[C@@H](C)O [[*I]SIB-VIP116] [listing 1 of 2 here], which tissue uptake at 0.5 h ([1]; blood) is on record?
The tissue uptake at 0.5 h was 8.33 ± 1.18 %ID/g.

What about the tissue uptake at 2 h ([1]; tumor) of the same compound?
Its tissue uptake at 2 h is 2.19 ± 0.56 %ID/g.

Which “% of radioactivity in plasma as intact labeled peptide” value [2] does the source give for CC(=O)N[C@@H](CCCCNC(=O)c1cccc(I)c1)C(=O)NCCCCCC(=O)N[C@H](C(=O)N[C@@H](CO)C(=O)N[C@@H](Cc1ccccc1)C(=O)N[C@]1(C)CCCCCCC=CCCC[C@@](C)(C(=O)N[C@@H](CCC(=O)O)C(=O)N[C@@H](CC(N)=O)C(=O)N[C@@H](Cc2ccccc2)C(N)=O)NC(=O)[C@H](CC(C)C)NC(=O)[C@H](CC(C)C)NC(=O)[C@H](C)NC(=O)[C@H](Cc2c[nH]c3ccccc23)NC(=O)[C@H](Cc2ccc(O)cc2)NC(=O)[C@H](CCC(=O)O)NC1=O)[C@@H](C)O [[*I]SIB-VIP116] [listing 2 of 2 here] here?
Its value is “about 80%”.

What does the source list for CC(=O)N[C@@H](CCCCNC(=O)c1cccc(I)c1)C(=O)NCCCCCC(=O)N[C@H](C(=O)N[C@@H](CO)C(=O)N[C@@H](Cc1ccccc1)C(=O)N[C@]1(C)CCCCCCC=CCCC[C@@](C)(C(=O)N[C@@H](CCC(=O)O)C(=O)N[C@@H](CC(N)=O)C(=O)N[C@@H](Cc2ccccc2)C(N)=O)NC(=O)[C@H](CC(C)C)NC(=O)[C@H](CC(C)C)NC(=O)[C@H](C)NC(=O)[C@H](Cc2c[nH]c3ccccc23)NC(=O)[C@H](Cc2ccc(O)cc2)NC(=O)[C@H](CCC(=O)O)NC1=O)[C@@H](C)O [[^125I]SIB-VIP116] [listing 1 of 2 here]?
tissue uptake at 0.5 h ([1]; bladder): 0.61 ± 0.21 %ID/g; tissue uptake at 2 h ([1]; bladder): 0.58 ± 0.34 %ID/g; tissue uptake at 6 h ([1]; bladder): 0.95 ± 0.78 %ID/g; tissue uptake at 24 h ([1]; bladder): 0.29 ± 0.09 %ID/g; tissue uptake at 2 h ([1]; blood): 6.84 ± 1.92 %ID/g; tissue uptake at 6 h ([1]; blood): 5.12 ± 0.9 %ID/g; tissue uptake at 24 h ([1]; blood): 0.62 ± 0.2 %ID/g; tissue uptake at 0.5 h ([1]; bone): 0.38 ± 0.19 %ID/g; tissue uptake at 2 h ([1]; bone): 0.33 ± 0.23 %ID/g; tissue uptake at 6 h ([1]; bone): 0.29 ± 0.2 %ID/g; tissue uptake at 24 h ([1]; bone): 0.16 ± 0.04 %ID/g; tissue uptake at 0.5 h ([1]; brain): 0.24 ± 0.13 %ID/g; tissue uptake at 2 h ([1]; brain): 0.25 ± 0.08 %ID/g; tissue uptake at 6 h ([1]; brain): 0.2 ± 0.06 %ID/g; tissue uptake at 24 h ([1]; brain): 0.02 ± 0.01 %ID/g; tissue uptake at 0.5 h ([1]; heart): 2.52 ± 0.49 %ID/g; tissue uptake at 2 h ([1]; heart): 2.44 ± 0.49 %ID/g; tissue uptake at 6 h ([1]; heart): 2.14 ± 0.38 %ID/g; tissue uptake at 24 h ([1]; heart): 0.37 ± 0.08 %ID/g; tissue uptake at 0.5 h ([1]; kidneys): 3.06 ± 1.82 %ID/g; tissue uptake at 2 h ([1]; kidneys): 2.54 ± 0.5 %ID/g; tissue uptake at 6 h ([1]; kidneys): 2.5 ± 0.48 %ID/g; tissue uptake at 24 h ([1]; kidneys): 0.63 ± 0.12 %ID/g; tissue uptake at 0.5 h ([1]; large intestine): 0.06 ± 0.06 %ID/g; tissue uptake at 2 h ([1]; large intestine): 0.24 ± 0.2 %ID/g; tissue uptake at 6 h ([1]; large intestine): 4.44 ± 1.9 %ID/g; tissue uptake at 24 h ([1]; large intestine): 1.87 ± 1.29 %ID/g; tissue uptake at 0.5 h ([1]; liver): 13.5 ± 6.18 %ID/g; tissue uptake at 2 h ([1]; liver): 18.4 ± 1.45 %ID/g; tissue uptake at 6 h ([1]; liver): 11.4 ± 4.46 %ID/g; tissue uptake at 24 h ([1]; liver): 4.72 ± 2.84 %ID/g; tissue uptake at 0.5 h ([1]; lungs): 4.27 ± 1.06 %ID/g; tissue uptake at 2 h ([1]; lungs): 2.72 ± 1.16 %ID/g; tissue uptake at 6 h ([1]; lungs): 2.49 ± 1.17 %ID/g; tissue uptake at 24 h ([1]; lungs): 0.33 ± 0.19 %ID/g; tissue uptake at 0.5 h ([1]; muscle): 0.16 ± 0.06 %ID/g; tissue uptake at 2 h ([1]; muscle): 0.24 ± 0.07 %ID/g; tissue uptake at 6 h ([1]; muscle): 0.25 ± 0.11 %ID/g; tissue uptake at 24 h ([1]; muscle): 0.16 ± 0.09 %ID/g; tissue uptake at 0.5 h ([1]; skin): 0.57 ± 0.17 %ID/g; tissue uptake at 2 h ([1]; skin): 0.88 ± 0.18 %ID/g; tissue uptake at 6 h ([1]; skin): 1.22 ± 0.47 %ID/g; tissue uptake at 24 h ([1]; skin): 0.52 ± 0.13 %ID/g; tissue uptake at 0.5 h ([1]; small intestine): 0.43 ± 0.09 %ID/g; tissue uptake at 2 h ([1]; small intestine): 2.17 ± 0.99 %ID/g; tissue uptake at 6 h ([1]; small intestine): 3.84 ± 1.29 %ID/g; tissue uptake at 24 h ([1]; small intestine): 0.86 ± 0.35 %ID/g; tissue uptake at 0.5 h ([1]; spleen): 1.29 ± 0.61 %ID/g; tissue uptake at 2 h ([1]; spleen): 1.8 ± 0.65 %ID/g; tissue uptake at 6 h ([1]; spleen): 1.99 ± 0.44 %ID/g; tissue uptake at 24 h ([1]; spleen): 0.58 ± 0.24 %ID/g; tissue uptake at 0.5 h ([1]; stomach): 0.34 ± 0.09 %ID/g; tissue uptake at 2 h ([1]; stomach): 0.53 ± 0.17 %ID/g; tissue uptake at 6 h ([1]; stomach): 1.9 ± 1.15 %ID/g; tissue uptake at 24 h ([1]; stomach): 0.84 ± 0.43 %ID/g; tissue uptake at 0.5 h ([1]; thyroid): 0.89 ± 0.17 %ID/g; tissue uptake at 2 h ([1]; thyroid): 1.14 ± 0.43 %ID/g; tissue uptake at 6 h ([1]; thyroid): 1.19 ± 0.36 %ID/g; tissue uptake at 24 h ([1]; thyroid): 0.27 ± 0.14 %ID/g; tissue uptake at 0.5 h ([1]; tumor): 1.8 ± 0.75 %ID/g; tissue uptake at 6 h ([1]; tumor): 2.11 ± 0.29 %ID/g; tissue uptake at 24 h ([1]; tumor): 0.36 ± 0.12 %ID/g; logD [3]: 1.45 ± 0.05

Which results are given for CC(=O)N[C@@H](CCCCNC(=O)c1cccc(I)c1)C(=O)NCCCCCC(=O)N[C@H](C(=O)N[C@@H](CO)C(=O)N[C@@H](Cc1ccccc1)C(=O)N[C@]1(C)CCCCCCC=CCCC[C@@](C)(C(=O)N[C@@H](CCC(=O)O)C(=O)N[C@@H](CC(N)=O)C(=O)N[C@@H](Cc2ccccc2)C(N)=O)NC(=O)[C@H](CC(C)C)NC(=O)[C@H](CC(C)C)NC(=O)[C@H](C)NC(=O)[C@H](Cc2c[nH]c3ccccc23)NC(=O)[C@H](Cc2ccc(O)cc2)NC(=O)[C@H](CCC(=O)O)NC1=O)[C@@H](C)O [[^125I]SIB-VIP116] [listing 2 of 2 here]?
blocking of cell uptake [4]: > 85%; Blood radioactivity ([5]; 30 min after i.v. injection, n = 5): 8.33 ± 1.18 %ID/g; radioactivity found in the urine ([5]; 2 h after i.v. injection (data not shown)): ≤ 0.93 % ID; Tumor uptake (SJSA-1 xenograft) ([5]; 2 h after i.v. injection, n = 5): 2.19 ± 0.56 %ID/g
